Measurements reported in ChEMBL document CHEMBL1201861, “Genomics of Drug Sensitity in Cancer screening data, Wellcome Trust Sanger Institute”.

What was measured:
Assay in all cases: cells
[1] = tested on: COR-L105; format: functional, cell-based, Homo sapiens; details: Homo sapiens, COR-L105;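 note: cell growth inhibition determined with a viability assay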
Description: SANGER: Inhibition of human COR-L105 cell growth in a cell viability assay.

[2] = tested on: CTB-1; format: functional, cell-based; details: Homo sapiens
Description: SANGER: Inhibition of human CTB-1 cell growth in a cell viability assay.

[3] = tested on: CW-2; format: functional, cell-based, Homo sapiens; details: Homo sapiens, CW-2;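 note: growth inhibition of CW-2 cells, read out by a cell viability assay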
Description: SANGER: Inhibition of human CW-2 cell growth in a cell viability assay.

[4] = tested on: DMS-114; format: functional, cell-based, Homo sapiens; details: Homo sapiens, DMS-114
[5] = tested on: ETK-1; format: functional, cell-based, Homo sapiens; details: Homo sapiens, ETK-1;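 note: growth inhibition of human ETK-1 cells, read out with a cell viability assay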
Description: SANGER: Inhibition of human ETK-1 cell growth in a cell viability assay.

[6] = tested on: EW-18; format: functional, cell-based; details: Homo sapiens;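 note: growth inhibition of EW-18 cells, read out by a cell viability assay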
Description: SANGER: Inhibition of human EW-18 cell growth in a cell viability assay.

[7] = tested on: FaDu; format: functional, cell-based, Homo sapiens; details: Homo sapiens, FaDu;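 note: cell viability readout of growth inhibition in FaDu cells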
Description: SANGER: Inhibition of human FADU cell growth in a cell viability assay.

[8] = tested on: HCC1419; format: functional, cell-based, Homo sapiens; details: Homo sapiens, HCC1419;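 note: growth inhibition of human HCC1419 cells, read out as cell viability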
Description: SANGER: Inhibition of human HCC1419 cell growth in a cell viability assay.

[9] = tested on: HCC1954; format: functional, cell-based, Homo sapiens; details: Homo sapiens, HCC1954;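 note: growth inhibition of human HCC1954 cells, read out with a cell viability assay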
Description: SANGER: Inhibition of human HCC1954 cell growth in a cell viability assay.

[10] = tested on: HCC38; format: functional, cell-based, Homo sapiens; details: Homo sapiens, HCC38;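 note: cell viability assay on the human HCC38 cell line, with IC50 marking the concentration that inhibits cell growth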
Description: SANGER: Inhibition of human HCC38 cell growth in a cell viability assay.

[11] = tested on: Hs-578T; format: functional, cell-based, Homo sapiens; details: Homo sapiens, Hs-578T
Description: SANGER: Inhibition of human Hs-578-T cell growth in a cell viability assay.

[12] = tested on: HuP-T4; format: functional, cell-based, Homo sapiens; details: Homo sapiens, HuP-T4;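 note: cell viability assay measuring how much HuP-T4 cell growth is inhibited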
Description: SANGER: Inhibition of human HuP-T4 cell growth in a cell viability assay.

[13] = tested on: KMOE-2; format: functional, cell-based; details: Homo sapiens;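 note: growth inhibition of human KMOE-2 cells, read out with a cell viability assay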
Description: SANGER: Inhibition of human KMOE-2 cell growth in a cell viability assay.

[14] = tested on: LU-134-A; format: functional, cell-based; details: Homo sapiens
Description: SANGER: Inhibition of human LU-134-A cell growth in a cell viability assay.

[15] = tested on: M14; format: functional, cell-based, Homo sapiens; details: Homo sapiens, M14;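 note: growth inhibition of M14 cells, read out with a cell viability assay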
Description: SANGER: Inhibition of human M14 cell growth in a cell viability assay.

[16] = tested on: MCF7; format: functional, cell-based, Homo sapiens; details: Homo sapiens, MCF7;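 note: growth inhibition of human MCF7 cells, read out with a cell viability assay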
Description: SANGER: Inhibition of human MCF7 cell growth in a cell viability assay.

[17] = tested on: MS-1; format: functional, cell-based; details: Homo sapiens;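 note: growth inhibition of MS-1 cells, read out by cell viability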
Description: SANGER: Inhibition of human MS-1 cell growth in a cell viability assay.

[18] = tested on: NB10; format: functional, cell-based, Homo sapiens; details: Homo sapiens, NB10;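 note: growth inhibition of NB10 cells, read out by a cell viability assay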
Description: SANGER: Inhibition of human NB10 cell growth in a cell viability assay.

[19] = tested on: NB13; format: functional, cell-based, Homo sapiens; details: Homo sapiens, NB13;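 note: cell viability readout measuring growth inhibition of human NB13 cells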
Description: SANGER: Inhibition of human NB13 cell growth in a cell viability assay.

[20] = tested on: NB5; format: functional, cell-based, Homo sapiens; details: Homo sapiens, NB5;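 note: growth inhibition of NB5 cells, read out as cell viability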
Description: SANGER: Inhibition of human NB5 cell growth in a cell viability assay.

[21] = tested on: NB6; format: functional, cell-based, Homo sapiens; details: Homo sapiens, NB6;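 note: growth inhibition of NB6 cells, read out by a cell viability assay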
Description: SANGER: Inhibition of human NB6 cell growth in a cell viability assay.

[22] = tested on: NCI-H1299; format: functional, cell-based, Homo sapiens; details: Homo sapiens, NCI-H1299;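 note: growth inhibition of human NCI-H1299 cells, read out by a cell viability assay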
Description: SANGER: Inhibition of human NCI-H1299 cell growth in a cell viability assay.

[23] = tested on: NCI-H1437; format: functional, cell-based, Homo sapiens; details: Homo sapiens, NCI-H1437;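 note: growth inhibition of human NCI-H1437 cells, read out by a cell viability assay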
Description: SANGER: Inhibition of human NCI-H1437 cell growth in a cell viability assay.

[24] = tested on: NCI-H1581; format: functional, cell-based, Homo sapiens; details: Homo sapiens, NCI-H1581;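 note: cell growth inhibition read out by a viability assay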
Description: SANGER: Inhibition of human NCI-H1581 cell growth in a cell viability assay.

[25] = tested on: NCI-H2347; format: functional, cell-based, Homo sapiens; details: Homo sapiens, NCI-H2347;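 note: growth inhibition of the cell line, read out with a cell viability assay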
Description: SANGER: Inhibition of human NCI-H2347 cell growth in a cell viability assay.

[26] = tested on: NCI-H661; format: functional, cell-based, Homo sapiens; details: Homo sapiens, NCI-H661;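 note: cell viability assay read-out, IC50 being the concentration that inhibits growth of the cells by half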
Description: SANGER: Inhibition of human NCI-H661 cell growth in a cell viability assay.

[27] = tested on: NCI-H727; format: functional, cell-based, Homo sapiens; details: Homo sapiens, NCI-H727;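 note: growth inhibition of human NCI-H727 cells, read out with a cell viability assay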
Description: SANGER: Inhibition of human NCI-H727 cell growth in a cell viability assay.

[28] = tested on: NOS-1; format: functional, cell-based, Homo sapiens; details: Homo sapiens, NOS-1;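 note: growth inhibition of the human NOS-1 cell line, read out with a cell viability assay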
Description: SANGER: Inhibition of human NOS-1 cell growth in a cell viability assay.

[29] = tested on: NUGC-3; format: functional, cell-based, Homo sapiens; details: Homo sapiens, NUGC-3;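 note: growth inhibition of human NUGC-3 cells, read out with a cell viability assay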
Description: SANGER: Inhibition of human NUGC-3 cell growth in a cell viability assay.

[30] = tested on: PANC-08-13; format: functional, cell-based, Homo sapiens; details: Homo sapiens, PANC-08-13;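 note: cell growth inhibition, measured with a cell viability assay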
Description: SANGER: Inhibition of human PANC-08-13 cell growth in a cell viability assay.

[31] = tested on: PC-3; format: functional, cell-based, Homo sapiens; details: Homo sapiens, PC-3;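 note: cell viability assay measuring growth inhibition of PC-3 cells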
Description: SANGER: Inhibition of human PC-3 cell growth in a cell viability assay.

[32] = tested on: RCC10RGB; format: functional, cell-based, Homo sapiens; details: Homo sapiens, RCC10RGB;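 note: growth inhibition of human RCC10RGB cells, read out by a cell viability assay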
Description: SANGER: Inhibition of human RCC10RGB cell growth in a cell viability assay.

[33] = tested on: RD; format: functional, cell-based, Homo sapiens; details: Homo sapiens, RD
Description: SANGER: Inhibition of human RD cell growth in a cell viability assay.

[34] = tested on: RS4-11; format: functional, cell-based; details: Homo sapiens;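 note: growth inhibition of RS4-11 cells, read out by a cell viability assay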
Description: SANGER: Inhibition of human RS4-11 cell growth in a cell viability assay.

[35] = tested on: SBC-5; format: functional, cell-based, Homo sapiens; details: Homo sapiens, SBC-5;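 note: cell viability assay read-out, IC50 is the concentration that inhibits growth of the cells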
Description: SANGER: Inhibition of human SBC-5 cell growth in a cell viability assay.

[36] = tested on: SK-MEL-28; format: functional, cell-based; details: Homo sapiens;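 note: growth inhibition of human SK-MEL-28 cells, read out with a cell viability assay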
Description: SANGER: Inhibition of human SK-MEL-28 cell growth in a cell viability assay.

[37] = tested on: SK-PN-DW; format: functional, cell-based; details: Homo sapiens;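 note: growth inhibition measured with a viability assay on these cells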
Description: SANGER: Inhibition of human SK-PN-DW cell growth in a cell viability assay.

[38] = tested on: SW1710; format: functional, cell-based, Homo sapiens; details: Homo sapiens, SW1710;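 note: growth inhibition of SW1710 cells, determined with a cell viability assay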
Description: SANGER: Inhibition of human SW1710 cell growth in a cell viability assay.

[39] = tested on: SW 954; format: functional, cell-based, Homo sapiens; details: Homo sapiens, SW 954;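 note: growth inhibition of SW954 human cancer cells, read out as cell viability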
Description: SANGER: Inhibition of human SW954 cell growth in a cell viability assay.

[40] = tested on: A204; format: functional, cell-based, Homo sapiens; details: Homo sapiens, A204;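 note: growth inhibition of human A204 cells, read out with a cell viability assay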
Description: SANGER: Inhibition of human A204 cell growth in a cell viability assay.

[41] = tested on: A-427; format: functional, cell-based, Homo sapiens; details: Homo sapiens, A-427;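 note: growth inhibition of human A-427 cells, read out by a cell viability assay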
Description: SANGER: Inhibition of human A427 cell growth in a cell viability assay.

[42] = tested on: ALL-PO; format: functional, cell-based; details: Homo sapiens;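 note: growth inhibition of ALL-PO cells, read out by a cell viability assay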
Description: SANGER: Inhibition of human ALL-PO cell growth in a cell viability assay.

[43] = tested on: BE-13; format: functional, cell-based; details: Homo sapiens;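 note: growth inhibition of human BE-13 cells, measured with a cell viability assay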
Description: SANGER: Inhibition of human BE-13 cell growth in a cell viability assay.

[44] = tested on: CAL-120; format: functional, cell-based, Homo sapiens; details: Homo sapiens, CAL-120;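 note: cell growth inhibition, read out as cell viability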
Description: SANGER: Inhibition of human CAL-120 cell growth in a cell viability assay.

[45] = tested on: CAL-72; format: functional, cell-based, Homo sapiens; details: Homo sapiens, CAL-72;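 note: cell viability assay measuring inhibition of proliferation in the CAL-72 cell line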
Description: SANGER: Inhibition of human CAL-72 cell growth in a cell viability assay.

[46] = tested on: TE-9; format: functional, cell-based, Homo sapiens; details: Homo sapiens, TE-9;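 note: cell growth inhibition, measured with a cell viability readout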
Description: SANGER: Inhibition of human TE-9 cell growth in a cell viability assay.

[47] = tested on: U-266; format: functional, cell-based; details: Homo sapiens
Description: SANGER: Inhibition of human U-266 cell growth in a cell viability assay.

[48] = tested on: UO-31; format: functional, cell-based; details: Homo sapiens;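 note: cell viability assay measuring inhibition of cell growth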
Description: SANGER: Inhibition of human U031 cell growth in a cell viability assay.

[49] = tested on: U-251; format: functional, cell-based, Homo sapiens; details: Homo sapiens, U-251;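 note: growth inhibition of human U-251 cells, read out through a cell viability assay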
Description: SANGER: Inhibition of human U251 cell growth in a cell viability assay.

[50] = tested on: UACC-62; format: functional, cell-based, Homo sapiens; details: Homo sapiens, UACC-62;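 note: growth inhibition of human UACC-62 cells, read out by a cell viability assay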
Description: SANGER: Inhibition of human UACC-62 cell growth in a cell viability assay.

[51] = tested on: no-11; format: functional, cell-based, Homo sapiens; details: Homo sapiens;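 note: growth inhibition of human NO-11 cells, read out with a cell viability assay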
Description: SANGER: Inhibition of human no-11 cell growth in a cell viability assay.

[52] = tested on: CCRF-CEM; format: functional, cell-based; details: Homo sapiens;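 note: inhibition of CCRF-CEM cell growth, measured by a cell viability assay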
Description: SANGER: Inhibition of human CCRF-CEM cell growth in a cell viability assay.

[53] = tested on: CGTH-W-1; format: functional, cell-based, Homo sapiens; details: Homo sapiens, CGTH-W-1;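 note: growth inhibition of human CGTH-W-1 cells measured by cell viability assay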
Description: SANGER: Inhibition of human CGTH-W-1 cell growth in a cell viability assay.

COc1cc([C@@H]2c3cc4c(cc3[C@@H](O[C@@H]3O[C@@H]5CO[C@@H](C)O[C@H]5[C@H](O)[C@H]3O)[C@H]3COC(=O)[C@H]23)OCO4)cc(OC)c1O [ETOPOSIDE]
IC50 [1]: 9.57 µM | IC50 [2]: 1.69 µM | IC50 [3]: > 16 µM | IC50 [4]: > 16 µM | IC50 [5]: 2.75 µM | IC50 [6]: > 16 µM | IC50 [7]: 1.28 µM | IC50 [8]: > 16 µM | IC50 [9]: 10 µM | IC50 [10]: 2.27 µM | IC50 [11]: > 16 µM | IC50 [12]: 1.45 µM | IC50 [13]: 8.04 µM | IC50 [14]: 0.299 µM | IC50 [15]: 7.95 µM | IC50 [16]: 0.831 µM | IC50 [17]: 5.64 µM | IC50 [18]: 16 µM | IC50 [19]: 2.76 µM | IC50 [20]: > 16 µM | IC50 [21]: > 16 µM | IC50 [22]: 2.07 µM | IC50 [23]: 3.38 µM | IC50 [24]: > 16 µM | IC50 [25]: 9.66 µM | IC50 [26]: 4.34 µM | IC50 [27]: > 16 µM | IC50 [28]: 3.58 µM | IC50 [29]: 0.981 µM | IC50 [30]: > 16 µM | IC50 [31]: > 16 µM | IC50 [32]: > 16 µM | IC50 [33]: 4.8 µM | IC50 [34]: 0.196 µM | IC50 [35]: 0.303 µM | IC50 [36]: > 16 µM | IC50 [37]: 0.342 µM | IC50 [38]: 0.518 µM | IC50 [39]: 1.96 µM | IC50 [40]: 0.232 µM | IC50 [41]: 0.103 µM | IC50 [42]: 0.69 µM | IC50 [43]: 0.504 µM | IC50 [44]: 15.6 µM | IC50 [45]: > 16 µM | IC50 [46]: 0.0559 µM | IC50 [47]: > 16 µM | IC50 [48]: 11.3 µM | IC50 [49]: 0.501 µM | IC50 [50]: 2.92 µM | IC50 [51]: 7.56 µM | IC50 [52]: 0.17 µM | IC50 [53]: 0.0574 µM
